Assay results from publication PMC11331414, “Small molecule telomerase inhibitors are also potent inhibitors of telomeric C-strand synthesis” (RNA, 2024).
Where two headings read alike, the source gives them in different places.

Tests used:
[1] = biological target: CST–PP (CST–polymerase α–primase); experiment: CST–PP binding to template DNA (EMSA) inhibition; parameters: species or system human; details: 25 nM CST–PP, 25 nM template, read-out: IC50binding
Method: To test directly if TMPyP4 inhibited CST–PP by preventing association with the templates, we next measured the effect of the drug on the proportion of DNA bound by CST–PP. We used the same conditions as in the synthesis reaction and observed that the DNA was about half bound in the absence of an inhibitor. We prepared DNA templates with an increasing concentration of TMPyP4 as before, then incubated with CST–PP and analyzed by EMSA (electrophoretic mobility shift assay) (Fig. 2A). By normalizing the fraction of DNA bound at each concentration of inhibitor to fraction bound without drug, we determined IC50 values for binding (IC50binding) in the two salts for both 9xTEL and 9xnoGG (Fig. 2B; Table 1).
(§1) CST–PP was purified from HEK 293T/17 cells (CRL-11268, ATCC), as previously described ([Zaug et al. 2021], [2022]). Briefly, cells were transfected with 3xFLAG-CTC1, Myc-STN1, and HA-TEN1 at a ratio of 1:1:1, expanded and grown for 48 h, and collected. The complex was purified by successive anti-FLAG and anti-HA immunoprecipitation. Endogenous Polα–primase copurifies with CST ([Zaug et al. 2022]). The purity of the complex was verified by silver staining and concentrations were determined by western blot analysis ([Zaug et al. 2022]).
Binding reactions were prepared identically to synthesis reactions, except glycerol (10% final) was added in place of the NTP mix. DNA and small molecules were incubated for 30 min at 30°C, then CST was added and incubation continued for another hour. Samples were loaded onto a 1× TBE 0.7% agarose gel and run at 70 V for 75 min at 4°C. The gels were placed on Hybond N^+ atop Whatman 3 mm paper and dried under a vacuum at 80°C for 1 h. They were then exposed to a phosphorimager screen, which was imaged using an Amersham Typhoon scanner 5. Binding was analyzed using ImageQuant; fraction bound was determined by dividing the number of counts in the bound band by the total number of counts in the lane, not including the well. Relative binding was calculated by dividing the fraction bound at each inhibitor concentration by the fraction bound without inhibitor. Results were plotted and analyzed as above.

9xTEL DNA (TTAGGG)9 = experiment: Circular dichroism thermal melt of 9xTEL DNA; parameters: species or system human; details: 10:1 small molecule:DNA
From the text: As the native gels were insufficient to identify the types of secondary structures formed by the ssDNA templates, we turned to circular dichroism (CD) for more information. We first examined 9xTEL in NaCl; with positive peaks at 290 and 240 nm and a negative peak at 260 nm, the spectrum matched published spectra for antiparallel GQ formation (Fig. 5A). We also collected spectra of 9xTEL in Na^+/K^+ and in K^+ only, which were both consistent with hybrid GQ (Supplemental Fig. S4A,B). Then we added TMPyP4 to 9xTEL at a ratio of 10:1 in each salt condition. […] We performed thermal melts of 9xTEL in Na^+ with and without TMPyP4, monitoring the signal from the positive peak at 290 nm and the negative peak at 260 nm (Fig. 5B). We found the drug increased the melting temperature (Tm) by about 10°C. Thus, 9xTEL DNA in Na^+ forms an antiparallel GQ that is stabilized by TMPyP4, consistent with previous studies ([Martino et al. 2009]).
(§2) CD samples contained 250 nM DNA in 75 mM NaCl and 50 mM KCl (Na^+/K^+), or 125 mM NaCl, KCl, or LiCl, 0.2× reaction buffer (10 mM Tris-HCl pH 8.0, 0.4 mM MgCl2, 0.2 mM spermidine, and 1 mM β-mercaptoethanol), and 0.02% DMSO; those with inhibitors also included 2.5 µM TMPyP4 or PDS. Baseline control samples consisted of 1× corresponding salt and 0.2× reaction buffer.
(§3) Samples containing DNA, salt, and buffer were placed in 95°C heat block for 10 min and cooled at room temperature for 30 min. PDS, TMPyP4, or DMSO was added and samples were incubated at 30°C for 30 min; 1.8 mL was added to a 10 mm path length cuvette and loaded into a Chirascan Plus Circular Dichroism and Fluorescence Spectrometer (Applied Photophysics). Spectra were collected between 360 and 220 nm with a step size of 1 nm. Three repeats were averaged and smoothed with a second-order polynomial with 10 neighbors on each side (Prism).
Continuous ramped thermal melts were performed at the indicated wavelengths with a 2 nm bandwidth. The temperature was increased from 20°C to 90°C at a rate of 1°C/min with a time-per-point of 12 sec. […]

[2] = biological target: CST–PP (CST–polymerase α–primase); experiment: CST–PP C-strand synthesis inhibition; format: biochemical, human; details: for IC50: 25 nM CST–PP, 25 nM template, read-out: IC50synthesis
Method: Telomeric C-strand synthesis was performed with CST–PP purified from cultured human cells (HEK293T), a synthetic telomeric DNA template (9xTEL, (TTAGGG)9), ribonucleotides to allow primase activity, and deoxynucleotides including α-^32P-dATP to monitor polymerase α extension. To test whether TMPyP4 would inhibit DNA synthesis by CST–PP, we preincubated 25 nM 9xTEL with increasing concentrations of the drug, then added 25 nM CST–PP and nucleotides and observed C-strand synthesis by gel electrophoresis (Fig. 1A, left). To serve as a size marker and recovery control, a small fraction of the template (T) was radiolabeled. The expected synthesis products were observed, all smaller than the 54-nt template (Supplemental Fig. S2A). The limited extension reflects the limited processivity of CST–PP, and the 6-nt ladder of products is due to multiple initiation sites on the 6-nt repeat template ([Zaug et al. 2022]).
as §1
Reactions (10 μL) contained 25 nM CST–PP and 25 nM single-stranded template DNA in 1× reaction buffer (50 mM Tris-HCl pH 8.0, 2 mM MgCl2, 1 mM spermidine, and 5 mM β-mercaptoethanol), 1× Na^+/K^+ (75 mM KCl and 50 mM NaCl) or 1× Li^+ (125 mM LiCl) salts, rNTPs (0.2 mM each CTP, UTP, ATP), and dNTPs (0.5 mM dCTP, 0.5 mM dTTP, 0.33 μM [α-^32P]dATP [300 Ci mmol^–1], 0.29 μM unlabeled dATP), the indicated concentrations of TMPyP4 or PDS, and 0.2% DMSO.
DNA templates and small molecule dilutions were prepared fresh immediately before each use. A small proportion of the template DNA was 5′ radiolabeled (typically ∼0.1–0.5 nM, 5000 counts per minute per reaction) to serve as a recovery and loading control and internal size marker. CST–PP generated more products with 9xnoGG in Na^+/K^+ than in other conditions, so in that condition, 5× more radioactive template was used (keeping total DNA at 25 nM) so that the control signal was not overwhelmed by the product signal. DNA templates in buffer and designated salt were placed in 95°C heat block for 5 min and cooled at room temperature for 30 min. Dilutions of PDS or TMPyP4 in 1% DMSO (or 1% DMSO only for no inhibitor condition) were added (final 0.2% DMSO), and mixtures were incubated in 30°C water bath for 30 min. CST–PP was added and mixtures were returned to water bath for 30 min. NTPs were added and the reaction proceeded at 30°C for 1 h; 50 µL stop mix (3.6 M ammonium acetate and 0.2 mg mL^−1 glycogen) was then added.
Quenched reactions were cleaned up using the Oligo Clean & Concentrator kit (D4060, Zymo) and eluted in water. An equivalent volume of 2× loading dye (95% formamide, 20 mM EDTA, and 0.05% each bromophenol blue and xylene cyanol) was added. Samples were boiled for 5 min, then loaded on a 10% acrylamide, 7 M urea, and 1× TBE gel. Molecular weight ladders were generated by telomerase as above (no small molecule). Gels were run at 30 W until the bromophenol blue was ∼2 in from the bottom (∼1–1.5 h) and dried on Whatman 3 mm paper at 80°C under a vacuum for 15–30 min. Gels were then exposed to a phosphorimager screen, which was imaged with Amersham Typhoon scanner 5 and analyzed using ImageQuant. The intensity of synthesis was normalized to the intensity of the loading control in the same lane. Relative synthesis was calculated by dividing normalized synthesis at each inhibitor concentration by the normalized synthesis without inhibitor. […]

telomerase = biological target: T1, telomerase (Homo sapiens, UniProt O14746); experiment: Telomerase inhibition (direct primer extension, 3xTEL primer); format: biochemical
T1 construct: 3xFLAG (N); made in house; host or cells: HEK293T
T1 sequence (O14746 whole entry): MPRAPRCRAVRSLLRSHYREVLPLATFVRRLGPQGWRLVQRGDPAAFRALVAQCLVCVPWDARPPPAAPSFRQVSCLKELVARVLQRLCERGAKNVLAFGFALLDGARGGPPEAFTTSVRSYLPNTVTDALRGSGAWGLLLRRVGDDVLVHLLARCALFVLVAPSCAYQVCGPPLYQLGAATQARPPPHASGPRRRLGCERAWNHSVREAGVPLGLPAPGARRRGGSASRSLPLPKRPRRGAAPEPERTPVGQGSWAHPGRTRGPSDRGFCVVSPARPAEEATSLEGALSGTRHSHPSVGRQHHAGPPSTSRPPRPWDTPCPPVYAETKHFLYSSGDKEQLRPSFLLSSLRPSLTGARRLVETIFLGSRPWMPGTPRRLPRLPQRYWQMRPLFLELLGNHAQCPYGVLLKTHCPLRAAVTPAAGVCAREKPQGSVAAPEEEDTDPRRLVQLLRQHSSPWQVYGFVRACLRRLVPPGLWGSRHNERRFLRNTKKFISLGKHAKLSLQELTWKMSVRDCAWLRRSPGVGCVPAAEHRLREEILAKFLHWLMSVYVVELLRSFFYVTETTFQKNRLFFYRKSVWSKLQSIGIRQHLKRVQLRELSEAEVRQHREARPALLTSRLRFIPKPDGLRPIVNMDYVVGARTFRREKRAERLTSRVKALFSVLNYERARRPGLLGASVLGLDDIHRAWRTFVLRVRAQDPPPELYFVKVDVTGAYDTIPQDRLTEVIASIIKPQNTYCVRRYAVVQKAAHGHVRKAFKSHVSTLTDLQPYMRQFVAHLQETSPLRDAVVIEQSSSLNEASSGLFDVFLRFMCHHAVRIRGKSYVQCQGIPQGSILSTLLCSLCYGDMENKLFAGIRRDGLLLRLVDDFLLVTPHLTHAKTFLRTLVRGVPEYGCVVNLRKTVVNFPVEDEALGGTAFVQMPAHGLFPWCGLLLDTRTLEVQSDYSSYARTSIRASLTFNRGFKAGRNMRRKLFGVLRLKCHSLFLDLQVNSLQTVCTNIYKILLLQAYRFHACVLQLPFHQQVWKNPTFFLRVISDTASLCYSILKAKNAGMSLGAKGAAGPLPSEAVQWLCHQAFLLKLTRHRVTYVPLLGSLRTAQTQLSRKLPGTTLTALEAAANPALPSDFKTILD
Method: Telomerase reactions (20 µL) contained 2 nM telomerase and 50 nM 3xTEL DNA in 1× telomerase activity buffer (50 mM Tris-HCl pH 8.0, 2 mM MgCl2, 1 mM spermidine, 5 mM β-mercaptoethanol, 75 mM KCl, and 50 mM NaCl), and dNTPs (0.5 mM dGTP, 0.5 mM dTTP, 0.33 μM [α-^32P]dATP [300 Ci mmol^–1], 3.3 μM unlabeled dATP), the indicated concentrations of TMPyP4 or PDS, and 10% DMSO. All components were mixed, and the samples were incubated at 30°C for 1 h. Reactions were quenched with 100 µL LC stop mix (3.6 M ammonium acetate, 0.2 mg mL^−1 glycogen, and a 16 nt ^32P-labeled loading control) and ethanol precipitated. Pellets were dried and dissolved in equal volumes of water and loading dye (95% formamide, 20 mM EDTA, and 0.05% each bromophenol blue and xylene cyanol), then boiled and run on a sequencing-style 10% acrylamide, 7 M urea, 1× TBE gel. The bromophenol blue dye was run to the bottom of the gel (∼1.75 h). The gel was removed from the glass plate using Whatman 3 mm paper and then dried at 80°C under a vacuum for 15–30 min. Gels were then exposed to a phosphorimager screen, which was imaged on a Typhoon FLA9500 scanner (GE Life Sciences) and analyzed by ImageQuant TL v.8.1.0.0 (GE Life Sciences). […] Relative activity was calculated by dividing normalized synthesis at each inhibitor concentration by the normalized synthesis without inhibitor. […]

9xnoGG DNA (TGAGTG)9 = experiment: Circular dichroism thermal melt of 9xnoGG DNA; details: 10:1 small molecule:DNA; for thermal melt transition temperature: CD at 260 and 240 nm
Method: We performed thermal melts of 9xnoGG in Na^+ and Li^+ and monitored the signal at the predominant peaks (positive at 260 nm and negative at 240 nm). The curves were biphasic, with an initial sharp transition at ∼26°C and a minor, broader transition ∼40°C (Fig. 5E). We wondered whether the first transition might represent the dissociation of a dimeric species and collected a full CD spectrum of 9xnoGG at both 12°C and 30°C. While the spectra were very similar, the amplitudes of the positive and negative peaks at 12°C were nearly twice that of the same sample at 30°C (Supplemental Fig. S5B). CD peak attenuation is consistent with a dimer-to-monomer transition ([Kypr et al. 2009]; [Vorlíčková et al. 2012]).
as §2, §3
Continuous ramped thermal melts were performed at the indicated wavelengths with a 2 nm bandwidth. The temperature was increased from 20°C to 90°C at a rate of 1°C/min with a time-per-point of 12 sec. Positive peaks were normalized to 1 at the lowest temperature, and negative peaks were normalized to −1 at the lowest temperature. Spectra were smoothed as above.

| SMILES | IC50 ([1]; template 9xTEL, Li+) [nM] | IC50 ([1]; template 9xTEL, Na+/K+) [nM] | IC50 ([1]; template 9xnoGG, Li+) [nM] | IC50 ([1]; template 9xnoGG, Na+/K+) [nM] | stabilization in full spectrum thermal melt (9xTEL DNA (TTAGGG)9; 9xTEL in Li+) | stabilization of GQ secondary structure in thermal melt (9xTEL DNA (TTAGGG)9; 9xTEL in NaCl, complex could not be entirely melted, no Tm calculated) | IC50 ([2]; template 9xTEL, Li+) [nM] | IC50 ([2]; template 9xTEL, Na+/K+) [nM] | IC50 ([2]; template 9xnoGG, Li+) [nM] | IC50 ([2]; template 9xnoGG, Na+/K+) [nM] | IC50 (telomerase; 2 nM telomerase, 50 nM 3xTEL DNA primer, 75 mM KCl/50 mM NaCl, 30°C, 1 h, read-out: half maximal inhibitory concentration (IC50) of telomerase) [nM] | increase of melting temperature (Tm) (9xTEL DNA (TTAGGG)9; 9xTEL in Na+, CD at 290 and 260 nm) | IC50synthesis in Li+ relative to Na+/K+ (fold higher) ([2]; template 9xTEL) | IC50 (telomerase) [nM] | thermal melt transition temperature (9xnoGG DNA (TGAGTG)9; 9xnoGG in Li+) [°C] | thermal melt transition temperature (9xnoGG DNA (TGAGTG)9; 9xnoGG in Na+) [°C] | increase of melting temperature of dimeric 9xnoGG (9xnoGG DNA (TGAGTG)9; 9xnoGG) |
| --- | --- | --- | --- | --- | --- | --- | --- | --- | --- | --- | --- | --- | --- | --- | --- | --- | --- |
| NCCOc1cc(C(=O)Nc2cc(OCCN)c3ccccc3n2)nc(C(=O)Nc2cc(OCCN)c3ccccc3n2)c1 [PDS, pyridostatin] | 140 | 110 | 160 | 120 | considerable stabilization | substantial stabilization | 110 | 140 | 180 | 200 | 520 |  |  |  |  |  |  |
| C[n+]1ccc(-c2c3nc(c(-c4cc[n+](C)cc4)c4ccc([nH]4)c(-c4cc[n+](C)cc4)c4ccc([nH]4)c(-c4cc[n+](C)cc4)c4nc2C=C4)C=C3)cc1 [TMPyP4] | 840 | 260 | 200 | 190 |  |  | 1000 | 250 | 310 | 220 |  | about 10 °C | about fourfold | 6400 | 52 | 52 | over 20 °C |
